In ChEMBL document CHEMBL5726093, “Piperidine derivatives” (2019):

Target: Cathepsin S (Homo sapiens, UniProt P25774)
Assay: Cathepsin Enzyme Inhibition Assay: Enzyme activity is measured by observing the increase in fluorescence intensity caused by cleavage of a peptide substrate containing a fluorophore whose emission is quenched in the intact peptide.Assay buffer: 100 mM potassium phosphate pH 6.5, EDTA-Na 5 mM, Triton X-100 0.001%, DTT 5 mM.Enzymes (all at 1 nM): human and mouse Cathepsin S, Cat K, Cat B, Cat L.Substrate (20 Z-Val-Val-Arg-AMC, except for Cat K which uses Z-Leu-Arg-AMC (both from Bachem).Z=Benzyloxycarbonyl.AMC=7-Amino-4-Methyl-Coumarin.DTT=dithiothreitol.Final volume: 100 μL.Excitation 360 nm, Emission 465 nm.Enzyme is added to the substance dilutions in 96-well microtitre plates and the reaction is started with substrate. Fluorescence emission is measured over 20 minutes, during which time a linear increase is observed in the absence of inhibitor.

Cathepsin S, sequence (P25774 whole entry): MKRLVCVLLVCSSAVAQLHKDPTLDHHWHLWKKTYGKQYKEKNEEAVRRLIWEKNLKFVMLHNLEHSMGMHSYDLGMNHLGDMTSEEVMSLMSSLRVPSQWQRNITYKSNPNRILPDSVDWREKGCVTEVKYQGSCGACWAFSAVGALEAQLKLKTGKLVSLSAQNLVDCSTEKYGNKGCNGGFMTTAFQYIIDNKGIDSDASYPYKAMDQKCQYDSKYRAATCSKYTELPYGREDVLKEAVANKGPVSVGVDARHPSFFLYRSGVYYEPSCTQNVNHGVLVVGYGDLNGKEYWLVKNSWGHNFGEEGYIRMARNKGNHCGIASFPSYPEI

Structure (SMILES): Cn1c(=O)n(C2CCN(Cc3nc(-c4ccc(C(F)(F)F)cc4)[nH]c3-c3ccccc3)CC2)c2ccccc21
- IC50: 0.985 µM
